Assay results reported in US4981690A, “Liposome-incorporated mepartricin” (priority 1987, dated 1991).
Where two headings read alike, the source gives them in different places.

Columns and labels:
human red blood cells = test: Lysis of human red blood cells (hemoglobin release at 550 nm); assay type: cell-based; conditions: SLS present in F-SPA-222
Procedure: The human RBCs were incubated at 37° C. for 45 min. with ( X) free-SPA-222, (Δ) sodium lauryl sulfate, ( .circle. ) free SPA-160, ( .circle. ) liposomal SPA-160 (L-SPA-160) in liposomes composed of DMPC:DMPG (7:3), ( ) L-SPA-160 in liposomes composed of DMPC:DMPG+cholesterol (9:1) or ( ) L-SPA-160 in liposomes composed of DMPC:DMPG+ergosterol (9:1)
Lysis of human red blood cells (HRBCs) was quantitated by measuring the release of hemoglobin in the supernatants at 550 nm, as described previously (Mehta et al., Biochim. Biophys, Acta., Vol. 770, pp. 230-234 (1984)). Various doses of L-SPA were incubated with fresh washed human RBCs at 37° C. for 45 minutes,24 hr, 48 hr and 96 hr.
Lysis of HRBCs was quantitated by measuring the release of hemoglobin in the supernatants at 550 nm as previously described (Mehta et al., (1984) Biochem. Biophys. Acts, 770:230). Various doses of L-SPA-160 were incubated with fresh washed HRBCs at 37° C. for 45 minutes, 24, 48 and 96 hrs. Free-SPA-222, stock dissolved in water and diluted with isotonic PBS was added to the assay. F-SPA-160 as DMFA solution diluted with isotonic PBS was also used as a control and contained 3% DMFA at a final concentration of drug at 300 ug ml. Appropriate solvent controls and empty liposomes were also included in each experiment. […]

[1] = water, cited from earlier work
HTLV-III/LAV = conditions: H9 cells; Schaffner et al. 1986; cited from earlier work
[2] = compared with partricin; cited from earlier work

| Molecule | Aqueous solubility (in words) [1] | Inhibition of HTLV-III/LAV replication (in words) (HTLV-III/LAV) | also measured |
| --- | --- | --- | --- |
| CCCCCCCCCCCCOS(=O)(=O)[O-].[Na+] [SLS, sodium lauryl sulphate] | – | – | Share of F-SPA-222 RBC toxicity associated with SLS (human red blood cells): Fifty percent |
| C[C@@H]1[C@H](O)[C@@H](C)/C=C/C=C/C=C/C=C/C=C/C=C/C=C/[C@H](O[C@@H]2O[C@H](C)[C@@H](O)[C@H](N)[C@@H]2O)C[C@@H]2O[C@](O)(C[C@@H](O)C[C@@H](O)[C@H](O)CC[C@@H](O)C[C@@H](O)CC(=O)O[C@H]1C)C[C@H](O)[C@H]2C(=O)O [Amphotericin B] | insoluble in water | inhibited | – |
| C[C@@H]1[C@H](O)[C@@H](C)/C=C/C=C/CC/C=C/C=C/C=C/C=C/C(O[C@H]2O[C@H](C)[C@@H](O)[C@H](N)[C@@H]2O)CC2O[C@](O)(CC(O)C(O)CCC(O)CC(O)CC(O)CC(=O)O[C@H]1C)CC(O)C2C(=O)O (some centres unmarked) [Nystatin] | aqueous insolubility | – | – |
| COC(=O)[C@H]1[C@@H]2C[C@@H](O[C@@H]3O[C@H](C)[C@@H](O)[C@H](N)[C@@H]3O)/C=C/C=C/C=C/C=C/C=C/C=C/C=C/[C@H](C)[C@@H](O)[C@@H](C)[C@H](C)OC(=O)C[C@H](O)C[C@H](O)CC[C@@H](O)[C@H](O)C[C@H](O)C[C@](O)(C[C@@H]1O)O2 [amphotericin B methyl ester ascorbate] | – | inhibited | – |
| Mepartricin | low aqueous solubility | – | Aqueous solubility (in words) ([1]; listed as mepartricin): substantially water-insoluble; Toxicity to animals relative to partricin (in words) [2]: much less toxic to animals than partricin |
